Test [1] concerns the target STE20-like serine/threonine-protein kinase (Homo sapiens, UniProt Q9H2G2). The test can be described thus: Selectivity interaction (Kinase panel (KiNativ target engagement assay in Jurkat cells)) EUB0001635a SLK. In kind it is cell-based. Conditions: Selectivity number of off-targets 0.0, Selectivity number of targets 233.0, Source Knowledge https://www.sciencedirect.com/science/article/pii/S2451945619300674?via%3Dihub, at 1 µM.

In test [2] the target is Tyrosine-protein kinase Fgr (Homo sapiens) (UniProt P09769). The test can be described thus: Selectivity interaction (Ambit KINOMEscan and KiNATiv profiling in Jurkat cells) EUB0000090b FGR. In kind it is cell-based. Conditions: at 1 µM.
Test [3] addresses Bone morphogenetic protein receptor type-1B (Homo sapiens, UniProt O00238). The test can be described thus: Selectivity interaction (KinomeScan (DiscoverX)) EUB0000229b BMPR1B. The following applies: at 10 µM.
Test [4] has as its target T1, Homeodomain-interacting protein kinase 4 (Homo sapiens) (UniProt Q8NE63).
T1 sequence (whole entry): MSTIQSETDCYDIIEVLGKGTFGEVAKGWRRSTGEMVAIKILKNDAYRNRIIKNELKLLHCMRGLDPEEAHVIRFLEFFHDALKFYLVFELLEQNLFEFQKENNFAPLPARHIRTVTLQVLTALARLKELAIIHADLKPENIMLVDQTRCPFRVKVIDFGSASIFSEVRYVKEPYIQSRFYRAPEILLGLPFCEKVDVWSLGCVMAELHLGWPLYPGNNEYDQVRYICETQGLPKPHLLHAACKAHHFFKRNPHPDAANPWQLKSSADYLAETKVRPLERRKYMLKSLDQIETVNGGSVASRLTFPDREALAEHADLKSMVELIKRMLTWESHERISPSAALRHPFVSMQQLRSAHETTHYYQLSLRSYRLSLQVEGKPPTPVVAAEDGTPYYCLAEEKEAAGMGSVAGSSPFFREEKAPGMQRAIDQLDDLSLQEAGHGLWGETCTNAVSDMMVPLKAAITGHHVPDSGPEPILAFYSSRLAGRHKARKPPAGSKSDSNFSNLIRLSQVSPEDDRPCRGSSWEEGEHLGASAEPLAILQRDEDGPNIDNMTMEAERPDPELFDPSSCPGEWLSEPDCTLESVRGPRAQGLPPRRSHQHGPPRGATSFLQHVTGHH
The test can be described thus: Selectivity interaction (KinomeScan (DiscoverX)) EUB0000229b HIPK4. The following applies: at 10 µM.

In test [5] the target is T2, Serine/threonine-protein kinase ULK2 (Homo sapiens) (UniProt Q8IYT8).
T2 sequence (whole entry): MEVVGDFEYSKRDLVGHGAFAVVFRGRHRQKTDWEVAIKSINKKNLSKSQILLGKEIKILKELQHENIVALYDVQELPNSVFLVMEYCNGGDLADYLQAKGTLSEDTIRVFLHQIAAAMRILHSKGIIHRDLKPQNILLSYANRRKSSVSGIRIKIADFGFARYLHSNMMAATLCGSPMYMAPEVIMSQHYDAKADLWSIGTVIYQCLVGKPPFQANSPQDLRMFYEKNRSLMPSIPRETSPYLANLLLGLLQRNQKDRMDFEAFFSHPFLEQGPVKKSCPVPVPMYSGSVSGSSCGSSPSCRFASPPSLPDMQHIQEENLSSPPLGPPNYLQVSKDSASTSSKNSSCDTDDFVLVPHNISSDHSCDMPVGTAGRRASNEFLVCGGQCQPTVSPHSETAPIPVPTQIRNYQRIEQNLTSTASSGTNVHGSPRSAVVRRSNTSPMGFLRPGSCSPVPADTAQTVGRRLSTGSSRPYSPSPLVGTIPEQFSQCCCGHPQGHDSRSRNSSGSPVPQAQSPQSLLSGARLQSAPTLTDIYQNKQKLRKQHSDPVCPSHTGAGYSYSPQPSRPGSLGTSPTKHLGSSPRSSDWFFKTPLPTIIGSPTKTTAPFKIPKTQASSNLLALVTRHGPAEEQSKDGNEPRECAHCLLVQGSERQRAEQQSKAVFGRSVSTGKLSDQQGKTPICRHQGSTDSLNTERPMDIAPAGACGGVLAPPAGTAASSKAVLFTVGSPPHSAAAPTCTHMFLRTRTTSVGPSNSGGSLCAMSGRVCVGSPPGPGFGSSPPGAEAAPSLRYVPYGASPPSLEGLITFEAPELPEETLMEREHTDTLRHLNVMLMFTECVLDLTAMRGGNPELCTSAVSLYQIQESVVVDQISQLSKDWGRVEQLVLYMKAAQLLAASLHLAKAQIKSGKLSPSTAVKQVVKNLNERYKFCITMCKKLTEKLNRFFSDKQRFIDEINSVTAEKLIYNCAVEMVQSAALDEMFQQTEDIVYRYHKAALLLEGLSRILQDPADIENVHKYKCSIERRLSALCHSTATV
Nature of the test: Selectivity interaction (KinomeScan (DiscoverX)) EUB0000229b ULK2. Conditions: at 10 µM.

Test [6] addresses 5'-AMP-activated protein kinase catalytic subunit alpha-2 (Homo sapiens) (UniProt P54646). The test can be described thus: Selectivity interaction (KinomeScan (DiscoverX)) EUB0000311b PRKAA2. The following applies: at 1 µM.
Test [7] concerns the target T3, Serine/threonine-protein kinase DCLK1 (Homo sapiens) (UniProt O15075).
T3 sequence (whole entry): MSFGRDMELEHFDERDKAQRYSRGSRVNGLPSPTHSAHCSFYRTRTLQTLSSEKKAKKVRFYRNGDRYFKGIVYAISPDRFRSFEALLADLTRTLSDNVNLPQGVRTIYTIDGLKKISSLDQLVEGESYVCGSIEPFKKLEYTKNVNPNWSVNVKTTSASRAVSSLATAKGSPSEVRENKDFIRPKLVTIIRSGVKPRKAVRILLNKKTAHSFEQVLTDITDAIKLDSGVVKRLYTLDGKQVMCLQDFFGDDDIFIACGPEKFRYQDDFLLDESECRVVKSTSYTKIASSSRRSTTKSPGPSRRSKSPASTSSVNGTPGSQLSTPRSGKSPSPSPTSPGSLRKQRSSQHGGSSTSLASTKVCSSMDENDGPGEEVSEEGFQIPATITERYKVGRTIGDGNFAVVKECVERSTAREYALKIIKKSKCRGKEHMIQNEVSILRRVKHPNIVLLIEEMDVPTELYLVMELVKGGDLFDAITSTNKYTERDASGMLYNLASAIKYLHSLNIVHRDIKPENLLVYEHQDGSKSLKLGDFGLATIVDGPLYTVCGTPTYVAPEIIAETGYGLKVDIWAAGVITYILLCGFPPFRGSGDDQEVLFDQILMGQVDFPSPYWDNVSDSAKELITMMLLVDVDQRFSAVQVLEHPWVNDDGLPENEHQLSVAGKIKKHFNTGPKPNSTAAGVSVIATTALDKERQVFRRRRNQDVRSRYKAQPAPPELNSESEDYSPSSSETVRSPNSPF
The test can be described thus: Selectivity interaction (KinomeScan (DiscoverX)) EUB0001079a DCLK1. The following applies: at 1 µM.

The target of test [8] is Focal adhesion kinase 1 (Homo sapiens, UniProt Q05397). The test can be described thus: Selectivity interaction (ActivX KiNativ screen (kinase selectivity in THP-1 cell lysates)) EUB0000639a PTK2. The test is classed as subcellular. Conditions: lysate, at 0.2 µM.
Test [9] addresses Angiopoietin-1 receptor (Homo sapiens) (UniProt Q02763). The test can be described thus: Selectivity interaction (KinomeScan (DiscoverX)) EUB0000618a TEK. The following applies: at 10 µM.

Each structure is given as a SMILES string.

5'-AMP-activated protein kinase catalytic subunit alpha-2 (Homo sapiens), sequence (P54646 whole entry, looked up): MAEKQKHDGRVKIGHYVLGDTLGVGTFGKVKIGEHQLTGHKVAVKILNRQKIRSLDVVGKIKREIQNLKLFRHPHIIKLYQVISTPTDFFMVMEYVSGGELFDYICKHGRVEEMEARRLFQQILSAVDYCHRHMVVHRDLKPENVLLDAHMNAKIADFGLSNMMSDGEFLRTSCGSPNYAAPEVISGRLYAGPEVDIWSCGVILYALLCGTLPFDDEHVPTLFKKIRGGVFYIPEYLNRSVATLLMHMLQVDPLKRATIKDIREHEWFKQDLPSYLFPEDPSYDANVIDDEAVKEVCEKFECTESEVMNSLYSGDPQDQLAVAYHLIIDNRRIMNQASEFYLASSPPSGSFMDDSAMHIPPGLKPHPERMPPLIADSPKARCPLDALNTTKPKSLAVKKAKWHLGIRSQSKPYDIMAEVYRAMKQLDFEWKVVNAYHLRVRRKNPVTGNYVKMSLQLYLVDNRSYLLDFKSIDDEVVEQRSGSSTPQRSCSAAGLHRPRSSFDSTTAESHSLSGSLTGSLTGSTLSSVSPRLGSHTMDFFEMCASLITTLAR
Bone morphogenetic protein receptor type-1B, sequence (O00238 whole entry): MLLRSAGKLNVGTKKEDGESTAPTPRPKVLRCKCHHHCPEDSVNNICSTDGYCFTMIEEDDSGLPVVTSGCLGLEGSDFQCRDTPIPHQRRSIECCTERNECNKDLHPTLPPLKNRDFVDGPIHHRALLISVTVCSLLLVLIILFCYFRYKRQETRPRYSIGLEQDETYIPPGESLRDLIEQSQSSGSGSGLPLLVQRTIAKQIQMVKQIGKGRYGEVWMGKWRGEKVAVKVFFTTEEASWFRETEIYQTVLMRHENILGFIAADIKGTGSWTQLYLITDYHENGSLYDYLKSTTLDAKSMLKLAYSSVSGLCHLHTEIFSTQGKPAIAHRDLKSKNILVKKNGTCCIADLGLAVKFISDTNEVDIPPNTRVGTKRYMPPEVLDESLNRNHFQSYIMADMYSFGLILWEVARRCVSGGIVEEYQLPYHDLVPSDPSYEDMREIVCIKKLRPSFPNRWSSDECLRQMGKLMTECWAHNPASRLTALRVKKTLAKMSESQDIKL
STE20-like serine/threonine-protein kinase, sequence (Q9H2G2 whole entry, looked up): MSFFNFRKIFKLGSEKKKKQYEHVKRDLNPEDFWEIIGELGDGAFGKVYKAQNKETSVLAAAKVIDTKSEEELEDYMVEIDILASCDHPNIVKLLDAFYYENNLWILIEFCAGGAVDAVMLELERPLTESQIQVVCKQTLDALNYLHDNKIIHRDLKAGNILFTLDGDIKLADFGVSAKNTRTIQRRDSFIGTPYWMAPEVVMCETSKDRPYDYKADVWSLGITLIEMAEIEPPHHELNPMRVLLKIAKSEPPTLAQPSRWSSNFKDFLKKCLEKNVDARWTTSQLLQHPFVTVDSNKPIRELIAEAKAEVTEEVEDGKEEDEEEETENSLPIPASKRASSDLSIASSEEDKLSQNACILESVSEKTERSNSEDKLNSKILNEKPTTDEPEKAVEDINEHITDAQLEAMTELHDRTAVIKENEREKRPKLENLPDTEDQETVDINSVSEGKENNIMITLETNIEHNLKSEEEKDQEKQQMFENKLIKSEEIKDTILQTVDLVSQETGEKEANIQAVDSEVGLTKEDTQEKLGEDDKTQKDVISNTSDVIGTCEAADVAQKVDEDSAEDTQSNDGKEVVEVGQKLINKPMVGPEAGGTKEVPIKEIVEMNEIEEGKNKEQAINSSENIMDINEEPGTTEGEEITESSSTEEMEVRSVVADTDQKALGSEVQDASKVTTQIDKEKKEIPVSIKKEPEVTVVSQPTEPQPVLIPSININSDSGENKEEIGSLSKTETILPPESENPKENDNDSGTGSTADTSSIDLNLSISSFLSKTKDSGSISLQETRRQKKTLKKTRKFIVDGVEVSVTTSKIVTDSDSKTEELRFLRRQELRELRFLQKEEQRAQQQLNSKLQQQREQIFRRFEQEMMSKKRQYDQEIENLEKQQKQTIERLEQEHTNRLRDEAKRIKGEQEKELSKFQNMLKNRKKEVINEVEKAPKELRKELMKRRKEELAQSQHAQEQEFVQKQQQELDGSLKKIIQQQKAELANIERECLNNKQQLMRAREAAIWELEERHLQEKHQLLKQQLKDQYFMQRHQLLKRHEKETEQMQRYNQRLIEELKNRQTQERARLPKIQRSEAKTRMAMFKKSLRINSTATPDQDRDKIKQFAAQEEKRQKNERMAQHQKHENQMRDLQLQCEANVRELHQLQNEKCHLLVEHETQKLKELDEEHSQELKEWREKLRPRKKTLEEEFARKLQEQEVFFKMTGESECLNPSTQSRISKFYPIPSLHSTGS
Focal adhesion kinase 1, sequence (Q05397 2-1052 limits assumed): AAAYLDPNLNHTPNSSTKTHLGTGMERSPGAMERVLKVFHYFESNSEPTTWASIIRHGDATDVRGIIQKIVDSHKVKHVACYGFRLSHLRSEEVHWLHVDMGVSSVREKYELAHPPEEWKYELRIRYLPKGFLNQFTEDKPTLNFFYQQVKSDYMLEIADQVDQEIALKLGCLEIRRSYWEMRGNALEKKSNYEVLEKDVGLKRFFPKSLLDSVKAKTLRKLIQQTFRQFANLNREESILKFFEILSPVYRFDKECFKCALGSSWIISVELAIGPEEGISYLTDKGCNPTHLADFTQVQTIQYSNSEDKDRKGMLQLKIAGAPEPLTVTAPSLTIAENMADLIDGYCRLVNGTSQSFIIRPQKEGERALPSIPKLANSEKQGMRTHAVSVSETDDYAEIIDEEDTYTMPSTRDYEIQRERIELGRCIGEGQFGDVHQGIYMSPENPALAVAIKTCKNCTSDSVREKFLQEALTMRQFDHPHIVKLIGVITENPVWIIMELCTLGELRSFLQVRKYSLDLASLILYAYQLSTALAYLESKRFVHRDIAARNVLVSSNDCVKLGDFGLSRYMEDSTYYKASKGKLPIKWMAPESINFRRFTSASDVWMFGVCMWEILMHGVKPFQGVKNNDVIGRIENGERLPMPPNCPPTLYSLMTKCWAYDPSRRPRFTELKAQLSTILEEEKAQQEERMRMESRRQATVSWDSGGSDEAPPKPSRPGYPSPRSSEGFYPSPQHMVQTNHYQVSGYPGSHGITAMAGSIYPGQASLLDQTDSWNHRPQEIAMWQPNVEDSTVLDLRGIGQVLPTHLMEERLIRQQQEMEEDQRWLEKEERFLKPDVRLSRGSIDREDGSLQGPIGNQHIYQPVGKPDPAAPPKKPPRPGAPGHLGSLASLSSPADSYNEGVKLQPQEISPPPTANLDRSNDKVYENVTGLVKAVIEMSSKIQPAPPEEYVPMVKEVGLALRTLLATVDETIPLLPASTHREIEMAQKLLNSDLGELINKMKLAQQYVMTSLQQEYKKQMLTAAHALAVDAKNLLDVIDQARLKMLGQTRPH
Angiopoietin-1 receptor (Homo sapiens), sequence (Q02763 whole entry): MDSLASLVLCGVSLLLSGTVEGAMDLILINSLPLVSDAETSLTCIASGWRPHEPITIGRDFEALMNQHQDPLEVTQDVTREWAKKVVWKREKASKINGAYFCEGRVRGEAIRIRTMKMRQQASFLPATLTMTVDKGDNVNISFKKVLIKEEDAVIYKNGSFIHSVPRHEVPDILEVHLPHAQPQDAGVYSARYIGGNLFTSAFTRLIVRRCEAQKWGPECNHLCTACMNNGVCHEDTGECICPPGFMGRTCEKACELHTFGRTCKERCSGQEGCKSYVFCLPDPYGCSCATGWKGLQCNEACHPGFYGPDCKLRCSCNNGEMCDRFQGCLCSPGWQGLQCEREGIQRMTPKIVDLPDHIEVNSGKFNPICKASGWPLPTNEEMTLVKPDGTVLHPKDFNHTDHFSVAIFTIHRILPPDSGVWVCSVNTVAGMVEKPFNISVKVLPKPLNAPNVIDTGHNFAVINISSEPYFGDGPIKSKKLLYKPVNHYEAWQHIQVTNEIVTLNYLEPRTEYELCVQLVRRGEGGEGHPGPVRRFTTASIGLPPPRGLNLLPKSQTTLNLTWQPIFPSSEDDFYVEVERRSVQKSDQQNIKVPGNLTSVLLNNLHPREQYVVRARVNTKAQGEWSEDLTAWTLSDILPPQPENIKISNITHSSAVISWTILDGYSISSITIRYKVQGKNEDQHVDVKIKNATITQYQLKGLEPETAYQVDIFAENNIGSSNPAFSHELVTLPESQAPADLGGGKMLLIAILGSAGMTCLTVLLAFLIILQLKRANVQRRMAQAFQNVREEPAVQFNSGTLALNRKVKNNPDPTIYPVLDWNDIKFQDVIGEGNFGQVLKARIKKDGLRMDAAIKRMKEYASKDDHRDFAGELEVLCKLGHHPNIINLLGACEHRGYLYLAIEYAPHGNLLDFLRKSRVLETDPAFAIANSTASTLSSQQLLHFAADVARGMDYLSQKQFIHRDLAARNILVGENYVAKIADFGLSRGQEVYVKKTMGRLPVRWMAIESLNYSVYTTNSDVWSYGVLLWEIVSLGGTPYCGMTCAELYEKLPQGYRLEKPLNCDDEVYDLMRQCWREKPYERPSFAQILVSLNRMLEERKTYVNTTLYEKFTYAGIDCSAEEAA
Tyrosine-protein kinase Fgr (Homo sapiens), sequence (P09769 2-529 limits assumed): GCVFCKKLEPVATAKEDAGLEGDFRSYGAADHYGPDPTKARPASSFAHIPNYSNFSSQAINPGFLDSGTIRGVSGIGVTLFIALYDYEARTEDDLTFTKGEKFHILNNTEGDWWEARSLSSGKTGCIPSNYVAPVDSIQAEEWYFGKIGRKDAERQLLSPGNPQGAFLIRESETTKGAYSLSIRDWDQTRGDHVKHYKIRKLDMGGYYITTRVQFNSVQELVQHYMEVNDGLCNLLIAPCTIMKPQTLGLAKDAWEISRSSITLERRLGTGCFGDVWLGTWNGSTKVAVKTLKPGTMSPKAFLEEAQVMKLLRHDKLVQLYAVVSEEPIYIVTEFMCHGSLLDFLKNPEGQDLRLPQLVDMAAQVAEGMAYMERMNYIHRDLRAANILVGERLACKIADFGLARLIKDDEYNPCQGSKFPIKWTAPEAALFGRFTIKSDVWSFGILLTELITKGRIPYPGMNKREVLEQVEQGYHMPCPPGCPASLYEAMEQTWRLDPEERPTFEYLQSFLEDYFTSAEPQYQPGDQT

On to `C=CC(=O)Nc1ccc(C(=O)Nc2[nH]nc3c2CN(C(=O)N[C@H](CN(C)C)c2ccccc2)C3(C)C)cc1`, for which the % of engagement in test [1] was 13%.
`CN(C)C/C=C/C(=O)Nc1ccc(C(=O)N2CCCC(Nc3ncc(Cl)c(-c4c[nH]c5ccccc45)n3)C2)cc1` (centres undefined) showed a % of control in [2] of 92%.
As to `COc1cc(N(C)c2ccnc3ccc(C(F)(F)F)cc23)cc(OC)c1OC`, the % binding in test [3] came out at 73%; in test [4] it was 100%; in test [5], 86%.
Regarding `CCc1ccccc1C(=O)Nc1n[nH]c2c(C)c(F)c(C3C(C#N)=C(C)N(C)C(C)=C3C#N)cc12` [BAY-3827], the % of control in test [6] amounted to 0%.
As to `Nc1cnc(N2CCc3cc(S(=O)(=O)Nc4c(F)cc(Cl)cc4F)cc(N4CCCC4=O)c32)nc1` [TP-020n], the % of control in [7] was found to be 100%.
Turning to `CC[C@@H]1[C@H](F)C(=O)N[C@@H]1COc1nccc2cc(C(N)=O)c(OC)cc12` [ZIMLOVISERTIB], in test [8], the % of inhibition stood at 5.5%.
For `O[C@H]1CC[C@H](Nc2ncc3nc(Nc4c(F)cc(F)cc4F)n([C@H]4CCOC4)c3n2)CC1`, the % of control in test [9] is 100%.

(Values after ChEMBL document CHEMBL5465560, “Selectivity Literature for EUbOPEN Chemogenomic Library” (2024).)
